According to patent US20060241296A1, “Vanilloid receptor ligands and their use in treatments” (priority 2005, published 2006):

Row | Compound | melting point [°C]
1 | O[C@@H]1Cc2cccc(Nc3cc(-c4ccc(C(F)(F)F)cc4)ncn3)c2C[C@H]1O (racemic) [Example 28, (±)-5-(6-(4-(Trifluoromethyl)phenyl)pyrimidin-4-ylamino)-1,2,3,4-tetrahydronaphthalene-2,3-trans-diol] | 286 to 289
2 | O[C@@H]1Cc2c(cccc2Nc2cc(-c3ccc(C(F)(F)F)cc3)ncn2)C[C@@H]1O (racemic) [Example 30, (±)-5-(6-(4-(Trifluoromethyl)phenyl)pyrimidin-4-ylamino)-1,2,3,4-tetrahydronaphthalene-2,3-cis-diol] | 231 to 232
3 | Nc1cc(C(F)(F)F)ccc1-c1cc(Nc2cccc3c2C[C@@H](O)[C@@H](O)C3)ncn1 (racemic) [Example 31, (±)-5-(6-(2-Amino-4-(trifluoromethyl)phenyl)pyrimidin-4-ylamino)-1,2,3,4-tetrahydronaphthalene-2,3-cis-diol] | 233 to 234
4 | OC1CCc2cccc(Nc3cc(-c4ccc(C(F)(F)F)cc4)ncn3)c2C1 (centres unmarked) [Example 1, 8-(6-(4-(Trifluoromethyl)phenyl)pyrimidin-4-ylamino)-1,2,3,4-tetrahydro-naphthalen-2-ol] | 178 to 179
5 | OC1CCc2c(Br)ccc(Nc3cc(-c4ccc(C(F)(F)F)cc4)ncn3)c2C1 (centres unmarked) [Example 37, 5-Bromo-8-(6-(4-(trifluoromethyl)phenyl)pyrimidin-4-ylamino)-1,2,3,4-tetrahydronaphthalen-2-ol] | 192
